Measured values reported in US20090304674A1, “METHODS FOR TREATING DISEASE BY REGULATING CLL CELL SURVIVAL” (priority 2005, published 2009).
Entries after “also recorded” stand apart in the source; their conditions may differ.

Experiments:
Assay type in all cases: cell-based, human
AKT in CLL B cells = experiment: Immunoblot of AKT (Ser473) phosphorylation in CLL B cells; conditions: SDF-1α 200 ng/ml; for induction of phosphorylation/activation of AKT (Ser473): 3 or 10 minutes, rhBAFF 50 ng/ml
Procedure: (§1) Cell lysates were prepared with RIPA buffer (10 mM Tris (pH 7.4), 150 mM NaCl, 1% Triton x 100, 1% deoxycholate, 0.1% SDS, 5 mM EDTA), containing 1 mM PMSF, 0.28 TIU/ml aprotinin, 50 μg/ml leupeptin, 1 mM benzamidine, 0.7 μg/ml pepstatin. Lysates were normalized for total protein (20 μg), subjected to SDS-PAGE (4-15% gradient gels, Bio-Rad, Hercules, Calif.) and immunoblot assay. We incubated the blots with secondary antibodies that were conjugated with horseradish peroxidase. Blots then were prepared for enhanced chemiluminescence (ECL) detection system (Amersham, Little Chalfont, Buckinghamshire, UK) and subsequent autoradiography with Super RX film (Fuji, Tokyo, Japan). The mouse mAb against APRIL (APRIL8) was from Alexis Biochemicals. The mouse mAb against inhibitor of kappa B-α (IκκBα was from Imgenex (San Diego, Calif.). The antibodies against anti-phosho-MAP kinase Erk1/2 and anti-MAP kinase Erk1/2-CT were purchased from Upstate Biotechnology. Antibodies against AKT or phospho-AKT (Ser473) were from Cell Signaling (Beverly, Mass.). Rabbit polyclonal antibodies (Mcl-1, Bcl-2, and Bax) were raised against synthetic peptides.21 Also primary antibodies included β-actin (Sigma Immunochemicals, St Louis, Mo.). Anti-p52 and anti-p65 antibodies were purchased from Upstate Biotechnology.

[1] = tested on: p44/42 MAPK (ERK1/2) in CLL B cells; experiment: Immunoblot of ERK1/2 phosphorylation in CLL B cells; conditions: SDF-1α 200 ng/ml; for induction of phosphorylation of ERK1/2: 3 or 10 minutes, rhBAFF 50 ng/ml
Procedure: as §1

[2] = tested on: NF-κB2/p100 pathway in CLL B cells; experiment: Immunoblot of alternative NF-κB2 pathway activation (p100 to p52, p52 nuclear translocation) in CLL B cells; conditions: concentrations that promote CLL cell survival; rhBAFF 50 ng/ml, rhAPRIL 500 ng/ml, 24 hours
Procedure: as §1
For fractionation experiments, cells were collected by centrifugation and washed with PBS. The cell pellet containing 5×10^6 cells was suspended in 100 μl of hypotonic buffer (50 mM Tris (pH7.4), 5 mM EDTA, 10 mM NaCl, 0.05% NP-40, 1 mM PMSF, 10 μg/ml Aprotinin, 10 μg/ml Leupeptin, 10 μg/ml Pepstatin, 10 mM β-Glycerophosphate, 1 mM Na-Vanadate, 1 mM NaF). After 10 minutes the lysate was spun and the supernatant was collected as cytoplasmic lysates. The pellet was washed 5 times in hypotonic buffer containing 0.1% NP-40. The remaining pellet was suspended in 100 μl RIPA buffer containing protease and phosphatase inhibitors. […]

[3] = tested on: canonical NF-κB1 pathway in CLL B cells; experiment: Immunoblot of canonical NF-κB1 pathway activation (IκBα degradation/phosphorylation, p65 nuclear translocation) in CLL B cells; conditions: concentrations that promote CLL cell survival; rhBAFF 50 ng/ml, rhAPRIL 500 ng/ml
Procedure: as §1
For fractionation experiments, cells were collected by centrifugation and washed with PBS. The cell pellet containing 5×10^6 cells was suspended in 100 μl of hypotonic buffer (50 mM Tris (pH7.4), 5 mM EDTA, 10 mM NaCl, 0.05% NP-40, 1 mM PMSF, 10 μg/ml Aprotinin, 10 μg/ml Leupeptin, 10 μg/ml Pepstatin, 10 mM β-Glycerophosphate, 1 mM Na-Vanadate, 1 mM NaF). After 10 minutes the lysate was spun and the supernatant was collected as cytoplasmic lysates. The pellet was washed 5 times in hypotonic buffer containing 0.1% NP-40. The remaining pellet was suspended in 100 μl RIPA buffer containing protease and phosphatase inhibitors. After an appropriate amount of 3× sample buffer (200 mM Tris (pH 6.8), 30 mM EDTA, 30% Glycerol, 6% SDS) was added, the sample was boiled for 10 minutes, spun for 10 minutes and the supernatant was recovered as nucleus lysates. Anti-NF kappa B p52 and p65 were purchased from Upstate Biotechnology. Anti-SP-1 was purchased from Santa Cruz Biotechnology (Santa Cruz, Calif.).
Cell lysates were prepared with radioimmunoprecipitation assay (RIPA) buffer (10 mM Tris [pH 7.4], 150 mM NaCl, 1% Triton X-100, 0.1% deoxycholate, 0.1% SDS, 5 mM EDTA), containing 1× complete protease inhibitor cocktail (Roche diagnostics), 1 mM sodium fluoride (NaF), and 1 mM sodium vanadate (Na3VO4). Lysates were normalized for total protein (25 μg) and subjected to SDS-PAGE (4-15% gradient gels, Bio-Rad, Hercules, Calif.) and immunoblot assay. We incubated the blots with secondary antibodies that were conjugated with horseradish peroxidase. Blots then were prepared for enhanced chemiluminescence (ECL) detection system (Amersham, Little Chalfont, United Kingdom) and subsequent autoradiography with Super RX film (Fuji, Tokyo, Japan).
For fractionation experiments, cells were collected by centrifugation and washed with PBS. The cell pellet containing 5×10^6 cells was suspended in 100 μl of hypotonic buffer (50 mM Tris [pH7.4], 5 mM EDTA, 10 mM NaCl, 0.05% Nonidet P40 [NP-40]), containing 1× complete protease inhibitor cocktail, 1 mM NaF, and 1 mM Na3VO4. After 10 minutes, the lysate was spun and the supernatant was collected as cytoplasmic lysates. […]

Mcl-1 in CLL B cells = experiment: Immunoblot of Mcl-1 expression in CLL B cells; conditions: short-term culture of isolated CLL B cells
Procedure: as §1

[4] = tested on: Bcl-2, Bax, Bcl-xL in CLL B cells; experiment: Immunoblot of Bcl-2, Bax, Bcl-xL expression in CLL B cells; conditions: short-term culture of isolated CLL B cells
Procedure: as §1

[5] = tested on: isolated CD19+ CLL B cells; experiment: Viability of isolated CLL B cells cultured without NLC (DiOC6/PI flow cytometry); conditions: rhBAFF 50 ng/ml, rhAPRIL 500 ng/ml; samples of 3 patients
Procedure: (§2) Freshly thawed CLL B cells were cultured at the concentration of 1×10^6/ml under various conditions. Determination of CLL cell viability in this study was based on the analysis of mitochondrial transmembrane potential (Δψm) using 3,3′-dehexyloxacarbocyamine iodine (DiOC6) and cell membrane permeability to PI, as described.22 For viability assays, 100 μl of the cell culture was collected at the indicated time points and transferred to polypropylene tubes containing 100 μl of 60 nmol/l DiOC6 (Molecular Probes) and 10 μg/ml PI in FACS buffer. The cells then were incubated at 37° C. for 15 minutes and analyzed within 30 minutes by flow cytometry using a FACSCalibur (Becton Dickinson). Fluorescence was recorded at 525 nm (FL-1) for DiOC6 and at 600 nm (FL-3) for PI.

[6] = tested on: NF-κB1 binding activity in CLL cells; experiment: Electrophoretic mobility shift assay of NF-κB DNA binding in nuclear extracts of CLL cells; conditions: rhBAFF 50 ng/ml or rhAPRIL 500 ng/ml, 24 hours
Procedure: Nuclear proteins were extracted using a nuclear extraction kit (Pierce, Rockford, Ill.) in presence of 1× complete protease inhibitor cocktail (Roche diagnostics). Total protein was measured using a modified Bradford test (Bio-Rad, Hercules, Calif.). 2 μg of nuclear protein extracts were incubated on ice for 30 min with antibodies to p50 and p65 (Santa Cruz Biotechnology). Later, a radiolabeled double stranded probe that encompassed the κB1 site was added, followed by incubation at room temperature for 30 min. Samples were loaded on a 6% acrylamide gel and run at 150 volts for three and a half hours.

transfected CLL cells = experiment: Viability of CLL cells transfected with SR-IκBα or control vector (Amaxa nucleofection); conditions: rhBAFF 50 ng/ml or rhAPRIL 500 ng/ml for 24 hours, added four hours after transfection
Procedure: as §2, with “of 1×10^6/mL” for “of 1×10^6/ml”, “as described.” for “as described.22”, “of 80” for “of 60”, “and 2” for “and 10”
CLL cells were transfected using the Amaxa nucleofection technology (Amaxa). Cells were resuspended in solution from human B cell nucleofector kit, also available as part of Amaxa cell optimization kit, according to the manufacturer's instructions. Briefly, 100 μl of 5×10^6 cell suspension mixed with 5 μg cDNA was transferred to the provided cuvette and nucleofected with an Amaxa Nucleofector apparatus (Amaxa). Cells were transfected using the U-15 pulsing parameter and immediately transferred into wells containing 37° C. pre-warmed culture medium in 12-well plates. After transfection, cells were cultured from 4 to 48 hours before analyzing by FACS. pmaxGFP was used to gauge transfection efficiency.

[7] = 3 minutes, 4F at 50 nM or 500 nM

Substance	block of SDF-1α-induced phosphorylation of AKT at Ser473 (AKT in CLL B cells; [7])	block of SDF-1α-induced phosphorylation of ERK1/2 [1, 7]	activation of NF-κB2 (processing of p100 to p52, translocation of p52 to the nucleus) [2]	activation of classical/canonical NF-κB pathway (IκBα degradation, p65 translocation to nucleus) [3]	induction of phosphorylation/activation of AKT (Ser473) (AKT in CLL B cells)	induction of Mcl-1 expression in CLL B cells (Mcl-1 in CLL B cells)	changes in levels of Bcl-2, Bax, or Bcl-xL [4]	induction of phosphorylation of ERK1/2 [1]	viability of isolated CLL cells cultured without NLC versus control [5]	NF-κB consensus motif binding proteins in nuclear extracts (EMSA) [6]	viability of CLL cells transfected with SR-IκBα (transfected CLL cells)	viability of CLL cells transfected with control expression plasmid (transfected CLL cells)
4F-benzoyl-TE14011 [reference compound]	could be blocked	could be blocked										
SDF-1α			did not observe activation of NF-κB2	did not have this activity	induced phosphorylation of AKT at Ser473	could not induce isolated CLL B cells to express higher levels of Mcl-1	did not observe significant changes	induced phosphorylation of ERK1/2				
rhBAFF: recombinant human B cell-activating factor of the TNF family			could induce activation of NF-κB2; also recorded: could induce translocation of p52 to the nucleus	induced degradation of the inhibitor of kappa B (IκBα) and translocation of p65 to the nuclear fraction; also recorded: induced translocation of p65 to the nucleus	could not induce	induced to express increased levels of Mcl-1	did not observe significant changes	could not induce phosphorylation of p44/42 mitogen-activated phosphokinase (MAPK, ERK1/2)	significant greater than that of control treated CLL cells; also recorded: significantly improved the viability of CLL cells	increased amounts of proteins capable of binding NF-κB consensus motifs	had no effect on CLL cells transfected with SR-IκBα	significantly enhanced the viability of the cells transfected with the control expression plasmid
rhAPRIL: recombinant human a proliferation-inducing ligand, purchased from Alexis Biochemicals			did not observe activation of NF-κB2; also recorded: did not observe translocation of p52 to the nucleus	induced degradation of the inhibitor of kappa B (IκBα) and translocation of p65 to the nuclear fraction; also recorded: induced translocation of p65 to the nucleus	could not induce	induced to express increased levels of Mcl-1		could not induce phosphorylation of p44/42 mitogen-activated phosphokinase (MAPK, ERK1/2)	significant greater than that of control treated CLL cells; also recorded: significantly improved the viability of CLL cells	increased amounts of proteins capable of binding NF-κB consensus motifs	had no effect on CLL cells transfected with SR-IκBα	significantly enhanced the viability of the cells transfected with the control expression plasmid
